Experimental data published in patent US20110053947A1, “Arylchalcogenoarylalkyl-substituted imidazolidine-2,4-diones, process for preparation thereof, medicaments comprising these compounds and use thereof” (SANOFI-AVENTIS, priority 2008, published 2011).
Structures can show the parent of a compound that is named as a salt.

Target: T1, cannabinoid 1 receptor (hCB1R) (Homo sapiens, UniProt P21554)
T1 construct: expressed in transfected cells; host or cells: HEK293
Assay: In vitro functional assay with recombinant cells (FLIPR), CB1
Type: cell-based
Details: recombinant HEK293 cells expressing CB1 and G-protein; intracellular Ca2+ change after reference agonist, 20 min preincubation; read-out: hCB1R: FLIPR; IC50
Description: In vitro functional assays with recombinant cells:
Function-testing assays were performed by means of the FLIPR technique (“Fluorometric Imaging Plate Reader”, Molecular Devices Corp.).
To this end, ligand-induced changes in the intracellular concentration of Ca^2+ in recombinant HEK293 cells, which expressed both a cannabinoid receptor (CB1 or CB2) and G-protein Galphal6, were determined. For the studies, cells were sown into 96-well microtiter plates (60 000 cells/well) and left to grow overnight. The medium was removed and the cells were incubated in buffer which contained the fluorescent dye Fluo-4. After this loading with dye, the cells were washed, test substance was added dissolved in buffer, the mixture was incubated for 20 minutes, a known cannabinoid receptor agonist as a reference agonist was added in buffer and, finally, the changes in the intracellular Ca^2+ concentration were measured in the FLIPR unit.
Results were presented as the percentage change relative to the control (0%: analogous experiment without test substance and without reference agonist, i.e. only with buffer; 100%: analogous experiment without test substance, but with reference agonist in excess), and used to calculate dose/action curves, and IC50 values were determined.
The values of the functional assay compared to the cannabinoid 1 receptor including illustrative selectivities compared to the cannabinoid 2 receptor can be taken from table 1 which follows.

T1 sequence (P21554 whole entry): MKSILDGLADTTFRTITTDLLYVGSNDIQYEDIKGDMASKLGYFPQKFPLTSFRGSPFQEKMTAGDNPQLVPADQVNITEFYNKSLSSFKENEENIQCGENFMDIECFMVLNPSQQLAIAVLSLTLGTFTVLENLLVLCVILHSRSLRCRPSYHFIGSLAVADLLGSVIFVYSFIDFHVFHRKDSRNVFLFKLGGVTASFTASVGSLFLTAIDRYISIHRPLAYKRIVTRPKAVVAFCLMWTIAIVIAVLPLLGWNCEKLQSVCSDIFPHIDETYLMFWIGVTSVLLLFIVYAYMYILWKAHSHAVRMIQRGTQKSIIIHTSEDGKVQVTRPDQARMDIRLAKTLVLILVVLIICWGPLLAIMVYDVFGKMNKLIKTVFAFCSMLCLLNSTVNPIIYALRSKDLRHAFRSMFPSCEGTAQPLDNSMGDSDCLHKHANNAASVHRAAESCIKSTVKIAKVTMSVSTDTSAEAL

Row | SMILES | IC50
1 | CC1(C)C(=O)N(c2ccc(C#N)c(C(F)(F)F)c2)C(=O)N1Cc1ccccc1NC(=O)Nc1ccc(C(N)=O)cc1 [Example 16, 4-(3-{2-[3-(4-Cyano-3-trifluoromethylphenyl)-5,5-dimethyl-2,4-dioxoimidazolidin-1-ylmethyl]phenyl}ureido)benzamide] | 0.012 µM
2 | COC(=O)c1ccc(NC(=O)Nc2cc(F)ccc2CN2C(=O)N(c3ccc(C#N)c(C(F)(F)F)c3)C(=O)C2(C)C)cc1 [Example 17, Methyl 4-(3-{2-[3-(4-cyano-3-trifluoromethylphenyl)-5,5-dimethyl-2,4-dioxoimidazolidin-1-ylmethyl]-5-fluorophenyl}ureido)benzoate] | 0.01 µM
3 | CC1(C)C(=O)N(c2ccc(C#N)c(C(F)(F)F)c2)C(=O)N1Cc1ccc(F)cc1NC(=O)Nc1ccc(S(C)(=O)=O)cc1 [Example 19, 1-{2-[3-(4-Cyano-3-trifluoromethylphenyl)-5,5-dimethyl-2,4-dioxoimidazolidin-1-ylmethyl]-5-fluorophenyl}-3-(4-methane-sulfonylphenyl)urea] | 0.009 µM
4 | CC1(C)C(=O)N(c2ccc(C#N)c(C(F)(F)F)c2)C(=O)N1Cc1ccc(F)cc1NC(=O)Nc1ccc(Cl)nc1 [Example 20, 1-(6-chloropyridin-3-yl)-3-{2-[3-(4-cyano-3-trifluoromethylphenyl)-5,5-dimethyl-2,4-dioxoimidazolidin-1-ylmethyl]-5-fluorophenyl}urea] | 0.016 µM
5 | CC1(C)C(=O)N(c2ccc(C#N)c(C(F)(F)F)c2)C(=O)N1Cc1ccc(F)cc1NC(=O)Nc1ccc(S(N)(=O)=O)cc1 [Example 22, 4-(3-{2-[3-(4-Cyano-3-trifluoromethylphenyl)-5,5-dimethyl-2,4-dioxoimidazolidin-1-ylmethyl]-5-fluorophenyl}ureido)benzenesulfonamide] | 0.009 µM
6 | CC1(C)C(=O)N(c2ccc(F)c(C(F)(F)F)c2)C(=O)N1Cc1ccc(F)cc1NC(=O)Nc1ccc(S(=O)(=O)O)cc1 [Example 25, 4-(3-{5-fluoro-2-[3-(4-fluoro-3-trifluoromethylphenyl)-5,5-dimethyl-2,4-dioxoimidazolidin-1-ylmethyl]phenyl}ureido)benzenesulfonic acid] | 0.058 µM
7 | CC1(C)C(=O)N(c2ccc(F)c(C(F)(F)F)c2)C(=O)N1Cc1ccc(F)cc1NC(=O)Nc1ccc(S(=O)(=O)O)cc1 [Example 26, Sodium salt of 4-(3-{5-fluoro-2-[3-(4-fluoro-3-trifluoromethylphenyl)-5,5-dimethyl-2,4-dioxoimidazolidin-1-ylmethyl]phenyl}ureido)benzenesulfonic acid] | 0.066 µM
8 | CC1(C)C(=O)N(c2ccc(F)c(C(F)(F)F)c2)C(=O)N1Cc1ccc(F)cc1NC(=O)Nc1ccc(S(C)(=O)=O)cc1 [Example 27, 1-{5-Fluoro-2-[3-(4-fluoro-3-trifluoromethylphenyl)-5,5-dimethyl-2,4-dioxoimidazolidin-1-ylmethyl]phenyl}-3-(4-methanesulfonylphenyl)urea] | 0.013 µM
9 | CC1(C)C(=O)N(c2ccc(C#N)c(C3CC3)c2)C(=O)N1Cc1ccc(F)cc1NC(=O)Nc1ccc(S(N)(=O)=O)cc1 [Example 28, 4-(3-{2-[3-(4-Cyano-3-cyclopropylphenyl)-5,5-dimethyl-2,4-dioxoimidazolidin-1-ylmethyl]-5-fluorophenyl}ureido)benzenesulfonamide] | 0.009 µM
10 | CC1(C)C(=O)N(c2ccc(C#N)c(C3CC3)c2)C(=O)N1Cc1ccc(F)cc1NC(=O)Nc1ccc(S(=O)(=O)O)cc1 [Example 29, 4-(3-{2-[3-(4-cyano-3-cyclopropylphenyl)-5,5-dimethyl-2,4-dioxo-imidazolidin-1-ylmethyl]-5-fluorophenyl}ureido)benzenesulfonic acid] | 0.069 µM
11 | CC1(C)C(=O)N(c2ccc(C#N)c(C3CC3)c2)C(=O)N1Cc1ccc(F)cc1NC(=O)Nc1ccc(S(C)(=O)=O)cc1 [Example 30, 1-{2-[3-(4-Cyano-3-cyclopropylphenyl)-5,5-dimethyl-2,4-dioxoimidazolidin-1-ylmethyl]-5-fluorophenyl}-3-(4-methanesulfonylphenyl)urea] | 0.011 µM
12 | CSc1ccc(NC(=O)Nc2cc(F)ccc2CN2C(=O)N(c3ccc(C#N)c(C4CC4)c3)C(=O)C2(C)C)cc1 [Example 30.1, 1-{2-[3-(4-cyano-3-cyclopropylphenyl)-5,5-dimethyl-2,4-dioxoimidazolidin-1-ylmethyl]-5-fluorophenyl}-3-(4-methylsulfanylphenyl)urea] | 0.012 µM
13 | CC1(C)C(=O)N(c2ccc(F)c(C(F)(F)F)c2)C(=O)N1Cc1ccc(F)cc1NC(=O)Nc1ccc(NS(C)(=O)=O)cc1 [Example 31, N-[4-(3-{5-Fluoro-2-[3-(4-fluoro-3-trifluoromethylphenyl)-5,5-dimethyl-2,4-dioxoimidazolidin-1-ylmethyl]phenyl}ureido)phenyl]methanesulfonamide] | 0.032 µM
14 | CC1(C)C(=O)N(c2ccc(C#N)c(C(F)(F)F)c2)C(=O)N1Cc1ccc(F)cc1NC(=O)Nc1ccc(O)cc1 [Example 41, 1-{2-[3-(4-Cyano-3-trifluoromethylphenyl)-5,5-dimethyl-2,4-dioxo-imidazolidin-1-ylmethyl]-5-fluorophenyl}-3-(4-hydroxyphenyl)urea] | 0.004 µM
15 | CC1(C)C(=O)N(c2ccc(C#N)c(C3CC3)c2)C(=O)N1Cc1ccc(F)cc1NC(=O)Nc1ccc(S(=O)(=O)CC(=O)O)cc1 [Example 47, [4-(3-{2-[3-(4-Cyano-3-cyclopropylphenyl)-5,5-dimethyl-2,4-dioxoimidazolidin-1-ylmethyl]-5-fluorophenyl}ureido)benzenesulfonyl]acetic acid] | 0.025 µM
16 | CC1(C)C(=O)N(c2ccc(C#N)c(C(F)(F)F)c2)C(=O)N1Cc1ccc(F)cc1NC(=O)Nc1ccc(SCC(=O)O)cc1 [Example 50, [4-(3-{2-[3-(4-Cyano-3-trifluoromethylphenyl)-5,5-dimethyl-2,4-dioxoimidazolidin-1-ylmethyl]-5-fluorophenyl}ureido)phenylsulfanyl]acetic acid] | 0.013 µM
17 | CC1(C)C(=O)N(c2ccc(F)c(C(F)(F)F)c2)C(=O)N1Cc1ccc(F)cc1NC(=O)Nc1ccc(C(=O)O)cc1 [Example 60, 4-(3-{5-fluoro-2-[3-(4-fluoro-3-trifluoromethylphenyl)-5,5-dimethyl-2,4-dioxoimidazolidin-1-ylmethyl]phenyl}-ureido)benzoic acid] | 0.053 µM
18 | CC1(C)C(=O)N(c2ccc(F)c(C(F)(F)F)c2)C(=O)N1Cc1ccc(F)cc1NC(=O)Nc1ccc(C(=O)NS(C)(=O)=O)cc1 [Example 61, N-[4-(3-{5-Fluoro-2-[3-(4-fluoro-3-trifluoromethylphenyl)-5,5-dimethyl-2,4-dioxoimidazolidin-1-ylmethyl]phenyl}ureido)benzoyl]methanesulfonamide] | 0.016 µM
19 | CC1(C)C(=O)N(c2ccc(F)c(C(F)(F)F)c2)C(=O)N1Cc1ccc(F)cc1NC(=O)Nc1ccc(C(=O)NS(=O)(=O)C(F)(F)F)cc1 [Example 62, C,C,C-trifluoro-N-[4-(3-{5-fluoro-2-[3-(4-fluoro-3-trifluoromethylphenyl)-5,5-dimethyl-2,4-dioxoimidazolidin-1-ylmethyl]phenyl}ureido)benzoyl]methanesulfonamide] | 0.046 µM
20 | CC1(C)C(=O)N(c2ccc(F)c(C(F)(F)F)c2)C(=O)N1Cc1ccc(F)cc1NC(=O)Nc1ccc(C(=O)NS(=O)(=O)Cc2ccccc2)cc1 [Example 64, N-[4-(3-{5-fluoro-2-[3-(4-fluoro-3-trifluoromethylphenyl)-5,5-dimethyl-2,4-dioxoimidazolidin-1-ylmethyl]phenyl}ureido)benzoyl]-C-phenylmethanesulfonamide] | 0.039 µM
21 | CC1(C)C(=O)N(c2ccc(F)c(C(F)(F)F)c2)C(=O)N1Cc1ccc(F)cc1NC(=O)Nc1ccc(C(=O)NS(=O)(=O)C2CC2)cc1 [Example 65, N-[4-(3-{5-fluoro-2-[3-(4-fluoro-3-trifluoromethylphenyl)-5,5-dimethyl-2,4-dioxoimidazolidin-1-ylmethyl]phenyl}ureido)benzoyl]cyclopropanesulfonamide] | 0.042 µM
22 | CC1(C)C(=O)N(c2ccc(C#N)c(C3CC3)c2)C(=O)N1Cc1cc(C(F)(F)F)ccc1NC(=O)Nc1ccc(S(C)(=O)=O)cc1 [Example 66, 1-{2-[3-(4-Cyano-3-cyclopropylphenyl)-5,5-dimethyl-2,4-dioxoimidazolidin-1-ylmethyl]-4-trifluoromethylphenyl}-3-(4-methanesulfonylphenyl)urea] | 0.01 µM
23 | CC1(C)C(=O)N(c2ccc(C#N)c(C3CC3)c2)C(=O)N1Cc1cc(Cl)ccc1NC(=O)Nc1ccc(S(C)(=O)=O)cc1 [Example 67, 1-{4-chloro-2-[3-(4-cyano-3-cyclopropylphenyl)-5,5-dimethyl-2,4-dioxoimidazolidin-1-ylmethyl]phenyl}-3-(4-methanesulfonylphenyl)urea] | 0.006 µM
24 | COc1cc(CN2C(=O)N(c3ccc(F)c(C(F)(F)F)c3)C(=O)C2(C)C)c(NC(=O)Nc2ccc(S(N)(=O)=O)cc2)cc1OC [Example 68, 4-(3-{2-[3-(4-fluoro-3-trifluoromethylphenyl)-5,5-dimethyl-2,4-dioxoimidazolidin-1-ylmethyl]-4,5-dimethoxyphenyl}ureido)benzenesulfonamide] | 0.039 µM
